In ChEMBL document CHEMBL5126642, “Triazine-Based Covalent DNA-Encoded Libraries for Discovery of Covalent Inhibitors of Target Proteins” (ACS Med Chem Lett, 2022):
pIC50: −log10 of the molar value.

Assays:
[1] = molecular target: Tyrosine-protein kinase BTK (Homo sapiens, UniProt Q06187); test: Inhibition of BTK (unknown origin) using TK peptide as substrate incubated for 1 hr in presence of ATP by HTRF assay
[2] = molecular target: T1, Tyrosine-protein kinase JAK3 (Homo sapiens, UniProt P52333); test: Inhibition of JAK3 (unknown origin) using TK peptide as substrate incubated for 1 hr in presence of ATP by HTRF assay
T1 sequence (P52333 whole entry): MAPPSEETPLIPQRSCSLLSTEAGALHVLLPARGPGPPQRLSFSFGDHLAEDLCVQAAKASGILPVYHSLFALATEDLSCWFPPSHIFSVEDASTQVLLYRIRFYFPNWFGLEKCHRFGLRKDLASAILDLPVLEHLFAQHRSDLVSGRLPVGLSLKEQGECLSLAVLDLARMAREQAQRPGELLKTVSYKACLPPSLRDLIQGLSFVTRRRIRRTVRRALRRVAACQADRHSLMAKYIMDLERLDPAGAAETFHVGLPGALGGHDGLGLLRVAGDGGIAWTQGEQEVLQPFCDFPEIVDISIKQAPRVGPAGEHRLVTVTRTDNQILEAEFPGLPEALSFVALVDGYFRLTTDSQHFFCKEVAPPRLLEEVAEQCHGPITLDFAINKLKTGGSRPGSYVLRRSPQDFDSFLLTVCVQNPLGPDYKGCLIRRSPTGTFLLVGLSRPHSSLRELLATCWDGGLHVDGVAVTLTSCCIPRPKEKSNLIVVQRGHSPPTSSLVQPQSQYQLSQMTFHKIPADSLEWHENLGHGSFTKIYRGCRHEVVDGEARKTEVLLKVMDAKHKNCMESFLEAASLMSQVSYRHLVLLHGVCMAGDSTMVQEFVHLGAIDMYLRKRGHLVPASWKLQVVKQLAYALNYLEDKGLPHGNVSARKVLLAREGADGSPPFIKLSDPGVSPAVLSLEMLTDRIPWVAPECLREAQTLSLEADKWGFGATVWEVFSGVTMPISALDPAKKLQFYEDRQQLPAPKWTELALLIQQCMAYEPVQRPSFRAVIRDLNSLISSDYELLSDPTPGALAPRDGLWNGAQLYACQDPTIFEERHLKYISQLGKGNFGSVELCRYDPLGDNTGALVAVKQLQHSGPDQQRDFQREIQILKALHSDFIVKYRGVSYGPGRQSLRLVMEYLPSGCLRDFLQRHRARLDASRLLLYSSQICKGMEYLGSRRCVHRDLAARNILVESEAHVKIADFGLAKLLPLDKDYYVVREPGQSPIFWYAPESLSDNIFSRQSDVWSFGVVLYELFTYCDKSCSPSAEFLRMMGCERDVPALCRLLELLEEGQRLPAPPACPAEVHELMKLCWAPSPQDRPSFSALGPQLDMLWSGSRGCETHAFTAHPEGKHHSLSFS

[3] = molecular target: Peptidyl-prolyl cis-trans isomerase NIMA-interacting 1 (Homo sapiens, UniProt Q13526); test: Inhibition of GST-tagged Pin1 (unknown origin) using Suc-AEPF-pNA peptide as substrate incubated for 3 hrs
Chain of Peptidyl-prolyl cis-trans isomerase NIMA-interacting 1 (Q13526 whole entry): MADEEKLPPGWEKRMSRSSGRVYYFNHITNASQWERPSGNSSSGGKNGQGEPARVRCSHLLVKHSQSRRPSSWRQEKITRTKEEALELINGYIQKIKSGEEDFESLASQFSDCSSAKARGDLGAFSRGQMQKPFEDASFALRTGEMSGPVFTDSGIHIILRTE

Chain of Tyrosine-protein kinase BTK (Q06187 whole entry): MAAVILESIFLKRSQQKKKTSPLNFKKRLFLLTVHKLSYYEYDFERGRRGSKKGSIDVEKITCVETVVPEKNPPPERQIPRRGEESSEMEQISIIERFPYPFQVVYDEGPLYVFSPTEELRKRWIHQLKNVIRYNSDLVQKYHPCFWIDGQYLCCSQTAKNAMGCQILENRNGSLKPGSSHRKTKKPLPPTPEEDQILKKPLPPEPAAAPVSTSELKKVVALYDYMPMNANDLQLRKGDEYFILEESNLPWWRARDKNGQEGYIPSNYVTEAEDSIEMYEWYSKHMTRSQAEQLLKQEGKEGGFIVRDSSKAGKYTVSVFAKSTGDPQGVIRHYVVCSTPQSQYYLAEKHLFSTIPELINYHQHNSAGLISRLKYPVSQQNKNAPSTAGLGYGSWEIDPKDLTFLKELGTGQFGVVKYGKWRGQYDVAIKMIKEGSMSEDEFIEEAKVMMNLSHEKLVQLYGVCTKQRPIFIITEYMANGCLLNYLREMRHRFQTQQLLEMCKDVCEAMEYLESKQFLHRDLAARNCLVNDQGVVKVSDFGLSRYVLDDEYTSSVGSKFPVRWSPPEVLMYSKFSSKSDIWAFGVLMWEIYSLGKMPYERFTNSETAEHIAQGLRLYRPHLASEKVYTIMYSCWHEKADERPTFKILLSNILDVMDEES

Row | Structure (SMILES) | pIC50 [1] | pIC50 [2] | pIC50 [3]
1 | CNc1nc(NC(c2ccccc2)c2cccc(S(C)(=O)=O)c2)nc(N2CCN(C(=O)CCl)CC2)n1 (stereo not given) |  |  | 5.49
2 | C=CC(=O)N1CC2CC1CN2c1nc(NC)nc(Nc2cc[nH]n2)n1 (stereo not given) | 7.79 | 6.16 | 
3 | C=CC(=O)Nc1cccc(CNc2nc(NC)nc(Nc3cc(C(C)(C)C)[nH]n3)n2)c1 | 7.01 | 8.21 | 

Continued, values first:

Row | pIC50 [1] | pIC50 [2] | pIC50 [3] | Structure (SMILES)
4 | 5.72 | 8.05 |  | CNc1nc(NCc2cccc(NC(=O)CCl)c2)nc(Nc2cc(C(C)(C)C)[nH]n2)n1
5 | 6.20 | 7.49 |  | CNc1nc(NCC(NC(=O)CCl)c2ccccc2)nc(Nc2cc(C(C)(C)C)[nH]n2)n1 (stereo not given)
6 |  |  | 5.77 | CNc1nc(Nc2ccc3cn[nH]c3c2)nc(N2CC3CC2CN3C(=O)CCl)n1 (stereo not given)
